# System: synthetic oligosaccharides and native S. pneumoniae serotype 2 capsular polysaccharides printed on slides
# Settings: mice s.c., pooled sera
# Method: On day 14 and 28 mice were received a booster injection with the same amount of antigen emulsified with 1:1 (v/v) alum. […] Mice were bled submandibular weekly using sterile single-use blood lancet. Control mice received only PBS and PBS in alum. The antibody responses were measured in both sera by glycan microarray and ELISA.
# Preparation of microarrays slides: The CodeLink NHS activated glass slides (Surmodics) were spotted with synthetic glycans and native polysaccharides at two different concentration (100 μM and 200 μM) in printing buffer (50 mM sodium phosphate, pH 8.5) by using a S3 piezoelectric microarray printer (Scienion) equipped with a type 4 coated nozzle. The relative humidity of spotted chamber was constantly maintained at 65%. The spotted slides were incubated over night at room temperature in a humidifying chamber. […]
# Microarray binding assays: The printed slides were blocked with PBS-BSA (1%) for 1 h at room temperature and washed 3 times with PBS. […] Slides were incubated with a fluorescence-labeled goat anti-mouse secondary antibodies (Life Technologies) diluted in 1% BSA in PBS (w/v) in a humid chamber for 1 h at room temperature, washed three times with PBST, rinsed once with deionized water and dried by centrifugation (300×g, 5 min) prior to scanning with a GenePix 4300A microarray scanner (Molecular Devices, Sunnyvale, Calif., USA). […]
smiles,measurement,setting,value
"C[C@@H]1O[C@H](O[C@H]2[C@H](O)[C@@H](O)[C@H](O[C@@H]3[C@@H](O)[C@H](C)O[C@@H](O[C@@H]4[C@@H](O)[C@H](C)O[C@@H](OCCCCCN)[C@@H]4O)[C@@H]3O[C@H]3O[C@H](CO[C@H]4O[C@H](C(=O)O)[C@@H](O)[C@H](O)[C@H]4O)[C@@H](O)[C@H](O)[C@H]3O)O[C@@H]2CO)[C@H](O)[C@H](O)[C@H]1O [hexasaccharide 2, 5-amino pentyl β-L-rhamnopyranosyl-(1→4)-β-D-glucopyranosyl-(1→3)-α-L-{α-D-glucopyranosyl uronate-(1→6)-α-D-glucopyranosyl-(1→2)}rhamnopyranosyl-(1→3)-α-L-rhamnopyranoside]",antibody response specific to hexasaccharide 2 / core glycan structures (immunogenicity),"3 μg sugar per dose with alum 1:1, boosts day 14 and 28, anti-mouse IgG",immunogenic in mice
same,cross-reactivity of raised antibodies with other fragments of hexasaccharide 2 printed on the slides,3 μg sugar per dose with alum 1:1,induces cross-reactive antibodies
